“Also recorded” adds a separate entry of the source. Read-outs that look alike come from different tables or passages of the source.
Legend:
skin of Guinea Pig [1] = conditions: TABLE I, cited from earlier work
[2] = tested on: Pityrosporum orbiculare 1219; assay: Antifungic test, cylinders method (inhibition diameter); assay type: cell-based; conditions: 72 hours at 37° C.
Description: (§1) CB 619 was tested against Pityrosporum orbiculare 1219 and Pityrosporum ovale 1363, both from the Pasteur Institute, in the Dixon's culture medium, modified by Randjandiche according to the following composition: 30 ml of culture medium were cast in each Petri dish of 90 mm of diameter. The inoculum was a 2 ml suspension of Pityrosporum containing 10,000,000 germs, 72 hours old, per ml. After drying at 37° C., tests were carried out according to discs method or to cylinders method. According to cylinders method, cylinders of 4 mm of diameter were excavated in gelose with a stainless steel tool, and 75 microliters of the solution of the tested product were introduced into each cylinder. According to both methods, the inhibition areas were measured after a time of incubation of 72 hours at 37° C. According to cylinders method, Intrinsic Inhibition Power of CB 619 is, the inhibition diameter being given in mm: […]

Pityrosporum ovale 1363 [3] = assay: as above; assay type: cell-based; conditions: 72 hours at 37° C.
Description: as §1

[4] = tested on: Pityrosporum orbiculare 1219; assay: Antifungic test, discs method (inhibition diameter); assay type: cell-based; conditions: 72 hours at 37° C.
Description: (§2) CB 619 was tested against Pityrosporum orbiculare 1219 and Pityrosporum ovale 1363, both from the Pasteur Institute, in the Dixon's culture medium, modified by Randjandiche according to the following composition:
(§3) 30 ml of culture medium were cast in each Petri dish of 90 mm of diameter.
(§4) The inoculum was a 2 ml suspension of Pityrosporum containing 10,000,000 germs, 72 hours old, per ml.
(§5) After drying at 37° C., tests were carried out according to discs method or to cylinders method.
(§6) According to the discs method, discs of 6 mm of Antibiotica-Testblattchen Schleider & Schull, reference 2668/2, are soaked in test solution, then set down onto the seeded medium.
(§7) According to both methods, the inhibition areas were measured after a time of incubation of 72 hours at 37° C.
(§8) According to the discs method, Intrinsic Inhibition Power of CB 619 is, the inhibition diameter being given in mm: […]

Pityrosporum ovale 1363 [5] = assay: as above; assay type: cell-based; conditions: 72 hours at 37° C.
Description: as §2, §3, §4, §5, §6, §7, §8

Mouse = assay: Acute toxicity in the Mouse (LD 50); assay type: in vivo; conditions: for LD 50: male and female mice, 14 days, Miller and Tainter method
Description: Acute toxicity of CB 619 in the Mouse
The lethal dosis 50% (LD 50) of CB 619 were evaluated when dissolved in bidistilled water and administered by 0.2 to 0.3 ml/kg volumes, monitoring the effect during 14 days.

skin = conditions: rabbit, in vivo
Description: Skin irritation index of CB 619 in the Rabbit
The experiment was made according to the French "Arrete Ministeriel" of the 21th of February 1982 which specifies the official method for the determination Of the skin primary irritation index (SPI).
The official method for the determination of the index of primary cutaneous irritation is described in detail in Annex 1.
The present method is utilized so as to determine the index of primary cutaneous irritation for a cosmetic or bodily hygiene product.
This method is based on the observation of cutaneous reactions provoked through the sole application of the principle.
4.1. Male albino rabbits of defined breed, weighing around 2.5 kg. So as to be perfectly acclimated, the animals must be kept in individual cages for one week prior to the experiment, and; must receive food of invariably balanced composition.
5.1.1. The day before application of the product, shear the back and flanks of the rabbits (4.1) with shears (4.3) so as to clear a surface of about 14 cm×14 cm; proceed with care in order to avoid all irritation. Verify skin condition so as to retain but six animals presenting healthy and clean-shaved skin.
5.1.2. […]
Primary cutaneous irritation must be evaluated around thirty minutes subsequent to removal of the dressing; a second evaluation is to take place 48 hours later, i.e. 72 hours after application of the product. […]

[6] = tested on: lipidic synthesis of the sebaceous gland; assay: In vitro antiseborrheic properties (14C-acetate incorporation, prepucial gland of the rat); assay type: cell-based
Description: In vitro antiseborrheic properties of CB 619
According to the experiment, the lipidic metabolic activity of the prepucial gland of the rat was evaluated. The lipidic synthesis of the sebaceous gland was evaluated by adding, as marked precursor, sodium ^14 C-acetate.
CB 619 was tested in comparison with carboxymethylcysteine (CMC) as a reference.

[7] = tested on: wound made by loss of substance; assay: Cicatrizing activity in the rat (area of wound); assay type: in vivo
Description: Cicatrizing activity of CB 619 in the rat
The experiment was to calculate the area of the wound made by loss of substance.

pH of aqueous solution = assay type: physicochemical; conditions: 6% solution in water
eye = conditions: rabbit, in vivo
Description: The experiment was made according to the recommendations of the French "Arrete Ministeriel" of the 21 February 1984 which specifies the official method to determinate the eye irritation (E.I.).
The present method is utilized so as to evaluate the kind and degree of irritation brought about in the eyes by the use of a cosmetic or bodily hygiene product.
The method is based on observation of ocular reaction provoked by the sole instillation of the product.
Directly apply the product in the conjunctival pouch of one of the eyes in the following doses:
Observe the eye of the rabbits one hour, and then 1, 2, 3, 4 and 7 days following the instillation, utilizing the non-instilled eye as a control in order to evaluate possible irritation in the treated eye.
Add up the scores gathered for each of the six rabbits as of each time of observation. One thereby obtains the index of individual ocular irritation: I.O.I.
At each time of observation calculate the average individual ocular irriatation for the six rabbits. One thereby obtains the index of mean ocular irritation: O.I.
Note among the six ocular irritation scores the one with the highest value. One thereby obtains the index of maximum ocular irritation: M.O.I. The time it takes for the latter to appear will be specified in the minutes or report of the experiment.
In an initial approximation, the product is classified in one of the six categories in accordance with the maximum ocular irritation scores.
In a second evaluation, the persistence of lesions intervenes as a corrective of the preceding classification; the ocular irritation and individual ocular irritation scores at different times are taken into account:

skin of Guinea Pig [8] = conditions: in vivo
Description: The experiment was made according to the technical sheet No. 44 (J. Pharmacol. Paris, 1978, 9, 1, 103-6) which conforms to the Magnusson and Kligmann technique.
This sensibilization test according to Magnusson and Kligmann is described in detail in annex 3.
This test is designed to create a delayed allergic reaction in the guinea pig.
Female albino Hartley-breed guinea pigs weighing between 300 and 500 grams.
For the intradermic tract, the product is placed in solution or suspension in bidistilled water, or a suitable solvent. Intradermic injections of 0.1 ml are given in the preliminarily sheared and shaved dorsal region of four albino guinea pigs in increased concentrations. […] The reading of possible reactions takes place after 24 hours. […] If this is not the case, the scale utilized will depend on the maximum non-irritating concentration (MNIC), whose determination may require a second series of tests with concentrations to be determined in accordance with the results of the first.
The same procedures are used for the external cutaneous tract, with the product being placed, in certain cases, in suspension or solution in vaseline. […] Readings are taken one hour following removal of the pads. […]
Readings of local reactions take place 24 and 48 hours following removal of the pad. […]

cicatrization of wounds = conditions: normal animal, without zinc deficiency; Favier et al. 1980; cited from earlier work

For `CCOC(=O)c1ccc(N)cc1` [Benzocaine], the “Class. (degree of allergenicity)” value (skin of Guinea Pig [1]; reading 24) is listed as “II (9-28)”, the “Number of animals with Note 0” value (skin of Guinea Pig [1]; reading 24) is listed as 17 and the “Number of animals with Note 1” value (skin of Guinea Pig [1]; reading 24) is listed as 3. The “Number of animals with Note 2” value (skin of Guinea Pig [1]; reading 24) was 0, the “Number of animals with Note 3” value (skin of Guinea Pig [1]; reading 24) was 0 and the “Percentage of animals having presented a reaction” value (“Percentage” below) (skin of Guinea Pig [1]; reading 24) was 15%. For the same compound, the “Class. (degree of allergenicity)” value (skin of Guinea Pig [1]; reading 48) was “II (9-28)”, the “Number of animals with Note 0” value (skin of Guinea Pig [1]; reading 48) was 17 and the “Number of animals with Note 1” value (skin of Guinea Pig [1]; reading 48) was 3. The “Number of animals with Note 2” value (skin of Guinea Pig [1]; reading 48) was 0, the “Number of animals with Note 3” value (skin of Guinea Pig [1]; reading 48) was 0 and the “Percentage” value (skin of Guinea Pig [1]; reading 48) was 15%.
With `N[C@@H](CS(=O)(=O)O)C(=O)[O-].N[C@@H](CS(=O)(=O)O)C(=O)[O-].O.O.[Zn+2]` [CB 619, dihydrate of the zinc salt of L-cysteic acid] the “Intrinsic Inhibition Power, inhibition diameter” value (“Intrinsic Inhibition Power” below) ([2]; concentration of 2%) was 10 mm, the “Intrinsic Inhibition Power” value ([2]; saturated solution) was 11 mm and the “Intrinsic Inhibition Power” value (Pityrosporum ovale 1363 [3]; concentration of 2%) was 10 mm. For the same compound, the “Intrinsic Inhibition Power” value (Pityrosporum ovale 1363 [3]; saturated solution) was 11 mm, the “Intrinsic Inhibition Power” value ([4]; 1 mg) was 6 mm and the “Intrinsic Inhibition Power” value ([4]; 2 mg) was 7 mm. For the same compound, the “Intrinsic Inhibition Power” value ([4]; 3 mg) was 9 mm, the “Intrinsic Inhibition Power” value ([4]; 4 mg) was 11 mm and the “Intrinsic Inhibition Power” value ([4]; 5 mg) was 13 mm. For the same compound, the “Intrinsic Inhibition Power” value (Pityrosporum ovale 1363 [5]; 1 mg) was 6 mm, the “Intrinsic Inhibition Power” value (Pityrosporum ovale 1363 [5]; 2 mg) was 7 mm and the “Intrinsic Inhibition Power” value (Pityrosporum ovale 1363 [5]; 3 mg) was 9 mm. For the same compound, the “Intrinsic Inhibition Power” value (Pityrosporum ovale 1363 [5]; 4 mg) was 11 mm, the “Intrinsic Inhibition Power” value (Pityrosporum ovale 1363 [5]; 5 mg) was 13 mm and the “LD 50” value (Mouse; intraperitoneally) was 0.10 ± 0.013 g/kg. For the same compound, the “Signs at the toxic dosis” value (Mouse; mouse, toxic dosis) was “animals become isolated in their cage; also recorded: Their hair stands up and they move with difficulty; also recorded: No diarrhea was observed”, the “LD 50” value (Mouse; orally) was 1.65 ± 0.06 g/kg and the Skin irritation classification (skin) was “non-irritant”. The “Skin primary irritation index (SPI)” value (skin) was 0.1666, the “Inhibition of the lipidic synthesis” value ([6]; 10^-3 M) was 41.8% and the “Antiseborrheic activity compared with carboxymethylcysteine” value ([6]; 10^-3 M, CB 619 versus CMC) was “the more active”. The “Inhibition of the lipidic synthesis” value ([6]; 10^-4 M) was 33.7%, the Cicatrization ([7]; 3% in a 2% carbopol gel) was “enhances cicatrization” and the Cicatrization ([7]; 10% in a 2% carbopol gel) was “no more active”. The “pH of a 6% solution” value (pH of aqueous solution) was “about 6.30”, the “Eye irritation (E.I.)” value (eye) was “under 2” and the Eye irritation classification (eye) was “very weakly irritant”. The Maximum eye irritation (eye) was 5.83, the “Allergenicity (sensibilization)” value (skin of Guinea Pig [8]) was “no allergenic properties” and the Cell multiplication (human fibroblast cells; 1 and 5 microgram/ml) was “increases the 5 cell multiplication in accordance with the concentration”. The “Significance of increase in cell multiplication (days)” value (human fibroblast cells; 1 microgram/ml) was “significant on the sixth day”, the “Significance of increase in cell multiplication (days)” value (human fibroblast cells; 5 microgram/ml) was “on the fourth, sixth and eighth days” and the Solubility in water was about 6 weight-percent by volume.
For `Nc1ccc(N)cc1` [Diamine paraphenylene], the “Class. (degree of allergenicity)” value (skin of Guinea Pig [1]; reading 24) is given as “V (81-100)”, the “Number of animals with Note 0” value (skin of Guinea Pig [1]; reading 24) is given as 3 and the “Number of animals with Note 1” value (skin of Guinea Pig [1]; reading 24) is given as 13. The “Number of animals with Note 2” value (skin of Guinea Pig [1]; reading 24) was 4, the “Number of animals with Note 3” value (skin of Guinea Pig [1]; reading 24) was 0 and the “Percentage” value (skin of Guinea Pig [1]; reading 24) was 85%. For the same compound, the “Class. (degree of allergenicity)” value (skin of Guinea Pig [1]; reading 48) was “IV (65-80)”, the “Number of animals with Note 0” value (skin of Guinea Pig [1]; reading 48) was 4 and the “Number of animals with Note 1” value (skin of Guinea Pig [1]; reading 48) was 12. For the same compound, the “Number of animals with Note 2” value (skin of Guinea Pig [1]; reading 48) was 4, the “Number of animals with Note 3” value (skin of Guinea Pig [1]; reading 48) was 0 and the “Percentage” value (skin of Guinea Pig [1]; reading 48) was 80%.
In the case of `CCN(CC)CCNC(=O)c1ccc(N)cc1` [Procainamide], the “Number of animals with Note 0” value (skin of Guinea Pig [1]; reading 24) is given as 6, the “Number of animals with Note 1” value (skin of Guinea Pig [1]; reading 24) is given as 5 and the “Number of animals with Note 2” value (skin of Guinea Pig [1]; reading 24) is given as 9. The “Number of animals with Note 3” value (skin of Guinea Pig [1]; reading 24) was 0, the “Percentage” value (skin of Guinea Pig [1]; reading 24) was 70% and the “Number of animals with Note 0” value (skin of Guinea Pig [1]; reading 48) was 6. The “Number of animals with Note 1” value (skin of Guinea Pig [1]; reading 48) was 5, the “Number of animals with Note 2” value (skin of Guinea Pig [1]; reading 48) was 9 and the “Number of animals with Note 3” value (skin of Guinea Pig [1]; reading 48) was 0. For the same compound, the “Percentage” value (skin of Guinea Pig [1]; reading 48) was 70%.
In the case of `OCC(O)CS` (stereo not shown) [Thioglycerol], the “Class. (degree of allergenicity)” value (skin of Guinea Pig [1]; reading 24) is listed as “III (29-64)”, the “Number of animals with Note 0” value (skin of Guinea Pig [1]; reading 24) is listed as 7 and the “Number of animals with Note 1” value (skin of Guinea Pig [1]; reading 24) is listed as 9. For the same compound, the “Number of animals with Note 2” value (skin of Guinea Pig [1]; reading 24) was 3, the “Number of animals with Note 3” value (skin of Guinea Pig [1]; reading 24) was 0 and the “Percentage” value (skin of Guinea Pig [1]; reading 24) was 63%. For the same compound, the “Class. (degree of allergenicity)” value (skin of Guinea Pig [1]; reading 48) was “III (29-64)”, the “Number of animals with Note 0” value (skin of Guinea Pig [1]; reading 48) was 11 and the “Number of animals with Note 1” value (skin of Guinea Pig [1]; reading 48) was 8. For the same compound, the “Number of animals with Note 2” value (skin of Guinea Pig [1]; reading 48) was 0, the “Number of animals with Note 3” value (skin of Guinea Pig [1]; reading 48) was 0 and the “Percentage” value (skin of Guinea Pig [1]; reading 48) was 45%.
In the case of `[Zn]` [zinc], the Cicatrization (cicatrization of wounds) is given as “does not accelerate the cicatrization”.
For carboxymethylcysteine [CMC], the “Inhibition of the lipidic synthesis” value ([6]; 10^-3 M) was 24.5% and the “Inhibition of the lipidic synthesis” value ([6]; 10^-4 M) was 5.9%.

Source: patent US5661177A, “Zinc cysteate its preparation and uses in pharmacy and cosmetology” (Chimie et Biologie, priority 1988, dated 1997)
